This note sets out measurements from patent US20260115250A1, “METHODS OF TREATING AGE-RELATED MACULAR DEGENERATION” (Character Biosciences, Inc., priority 2022, published 2026).

pEC50, pKd: −log10 of the molar value. Ends that are not written are not given here. Peptide text beside a SMILES is read from it.

System in one assay: not listed separately
Description: DMPC solubility assay, 0.5 mM DMPC (turbidity reduction). Type of assay: biochemical. To be noted: 3.16-100 μM peptides, 15 minutes. The protocol:
In this example, peptide stocks were diluted to 200 μM in H2O (a 2× solution) and 50 μL of peptide solution was transferred in triplicate into 96-well plates. A one mM solution of 1,2-dimyristoyl-sn-glycero-3-phosphocholine (DMPC) in H2O was prepared, and using a multichannel pipet, 50 μL DMPC solution was rapidly added to the plate. Peptide and lipid solutions were incubated at room temperature for 15 minutes with a final concentration of 100 μM peptides and 0.5 mM DMPC. After 15 minutes, absorbance was read on a plate reader at 405 nm. […] Data are presented as mean+SD over two runs.
In these experiments, DMPC solubility titration curves were generated. Peptide stocks were diluted to 200 μM in H2O (a 2× solution) and serially diluted in H2O over 4 concentrations, then 50 μL of peptide solutions were distributed in triplicate into 96-well plates. A 1 mM solution of 1,2-dimyristoyl-sn-glycero-3-phosphocholine (DMPC) in H2O was prepared, and using a multichannel pipet, 50 μL DMPC solution was rapidly added to the plate. Peptide and lipid solutions were incubated at room temperature for 15 minutes with final concentrations of 3.16-100 μM peptides and 0.5 mM DMPC. After 15 minutes, absorbance was read on a plate reader at 405 nm. […] Data are presented as mean+SD over two runs. Non-linear regression was used to calculate EC50 values.
For orientation: pEC50 means −log10 of the EC50, conventionally taken in molar units. The low end stands for a large EC50, the high end for a small EC50. As for “HLRKLRKRLLRDGDKLSDRLAEYVARAKEAFDR [T-080, therapeutic peptide]”, the pEC50 is 3.81. Take “HLRKLRKRLLRDGDDLQDRLAEYQARAKEAFDR [T-051, therapeutic peptide]”: the pEC50 was 4.81. For the compound “HLRKLRKRLLRDADDLQDRLAEYQARAKEAFDR [T-063, therapeutic peptide]”, the negative-log EC50 (pEC50) was 3.96. This pEC50 is 0.85 log units lower than that of the compound before.

The same assay, now with this note: FIGS. 2A-2D and 3A-3C.
With “T-010: therapeutic peptide (RDADDLQKRLAVYQAGAREGAE)”, the DMPC solubilizing activity entry is “significant activity”. For “T-011: therapeutic peptide (DADDLQKRLAVYQAGAREGAER)”, the DMPC solubilizing activity result was “significant activity”. Turning to “T-006: therapeutic peptide (QDEPPQSPWDRVKDLATVYVDVLKDSGRDYVSQFEGSALGKQLN)”, the DMPC solubilizing activity entry is listed as “significant activity”. Take T-015: therapeutic peptide (LVGRQLEEFL): the DMPC solubilizing activity entry is recorded as “did not have significant solubilizing activity”.

Take “T-014: therapeutic peptide (EQAQQIRLQAEAFQARLKSWFE)”: the DMPC solubilizing activity entry is listed as “significant activity”. With “T-024: therapeutic peptide (FEHWISGIYSECKHLIQE)”, the DMPC solubilizing activity result is “significant activity”. In the case of “T-020: therapeutic peptide (DGDKLCDRLAEYCARAKEAFDR)”, the DMPC solubilizing activity entry is “did not have significant solubilizing activity”.

The target in a further assay is LDLR (Homo sapiens, UniProt P01130). Description: LDLR binding (SPR), high surfactant preparation.
LDLR, sequence (P01130 22-860): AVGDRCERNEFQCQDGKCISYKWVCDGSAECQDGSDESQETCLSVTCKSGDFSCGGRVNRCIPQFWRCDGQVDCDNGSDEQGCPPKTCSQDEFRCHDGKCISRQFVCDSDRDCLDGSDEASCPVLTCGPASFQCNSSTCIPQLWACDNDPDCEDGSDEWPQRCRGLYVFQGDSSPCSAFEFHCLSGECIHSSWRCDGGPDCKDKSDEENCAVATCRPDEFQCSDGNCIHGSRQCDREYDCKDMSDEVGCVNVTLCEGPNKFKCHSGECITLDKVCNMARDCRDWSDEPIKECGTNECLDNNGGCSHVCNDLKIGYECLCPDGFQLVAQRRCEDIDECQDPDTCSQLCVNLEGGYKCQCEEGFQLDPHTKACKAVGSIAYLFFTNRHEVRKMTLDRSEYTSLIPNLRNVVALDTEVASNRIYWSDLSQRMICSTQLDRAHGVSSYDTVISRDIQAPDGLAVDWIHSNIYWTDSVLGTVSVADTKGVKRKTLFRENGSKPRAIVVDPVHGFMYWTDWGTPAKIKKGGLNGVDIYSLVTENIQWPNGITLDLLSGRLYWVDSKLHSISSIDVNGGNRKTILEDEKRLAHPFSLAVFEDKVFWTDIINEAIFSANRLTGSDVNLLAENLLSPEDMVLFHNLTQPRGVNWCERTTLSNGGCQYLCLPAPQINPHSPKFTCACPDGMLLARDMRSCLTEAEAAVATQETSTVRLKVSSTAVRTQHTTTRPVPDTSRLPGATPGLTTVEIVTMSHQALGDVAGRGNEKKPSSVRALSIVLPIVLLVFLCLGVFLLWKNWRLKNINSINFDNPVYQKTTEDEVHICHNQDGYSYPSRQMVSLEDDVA
Settings: not given
Here is the method: The table shown in FIG. 23 illustrates LDLR binding data (SPR), using a high surfactant preparation. Recombinant LDLR was diluted in 10 mM acetate buffer pH 4.5 and amine coupled to a CM5 chip at 1000 RU. Peptides were diluted to 5 μM in running buffer (HBS-P+, 1 mM CaCl2) and serially diluted 1:3 for 5 total concentrations. Peptides were exposed to immobilized LDLR at a rate of […] for 120 seconds. Between cycles, the chip surface was regenerated with 3 injections of 50 mM NaOH/100 mM EDTA. Multi-Cycle Kinetics was performed on a Biacore Insight Evaluation Software and binding kinetics were analyzed with a 1:1 binding model.
Usually pKd stands for the Kd on a negative log10 scale, so that one unit is a factor of ten. “MEDVRGRLVQYRGEVQAMLGQSTEELRVRLASHLRKLRKRLLRDADDLQKRLAVYQA [T-068]” showed a pKd of over 5.00. The compound “DAWERFRALFKELADYFRLGQSTEELRVRLASHLRKLRKRLLRDADDLQKRLAVYQA [T-116]” had a pKd of over 5.00. On the same count and under the same terms, for “WKDFGERVERALREQFEDLGQSTEELRVRLASHLRKLRKRLLRDADDLQKRLAVYQA [T-113]” the value was over 5.00; for `CC(C)C[C@H](NC(=O)[C@H](CCCNC(=N)N)NC(=O)[C@H](CC(=O)O)NC(=O)[C@H](CCC(N)=O)NC(=O)[C@H](CC(C)C)NC(=O)[C@H](CCCCN)NC(=O)[C@H](CC(=O)O)NC(=O)CNC(=O)[C@H](CC(=O)O)NC(=O)[C@H](CCCNC(=N)N)NC(=O)[C@H](CC(C)C)NC(=O)[C@H](CC(C)C)NC(=O)[C@H](CCCNC(=N)N)NC(=O)[C@H](CCCNC(=N)N)NC(=O)[C@H](CCCNC(=N)N)NC(=O)[C@H](CC(C)C)NC(=O)[C@H](CCCNC(=N)N)NC(=O)[C@H](CCCNC(=N)N)NC(=O)[C@H](CC(C)C)NC(=O)[C@@H](N)Cc1c[nH]cn1)C(=O)N[C@@H](C)C(=O)N[C@@H](CCC(=O)O)C(=O)N[C@@H](Cc1ccc(O)cc1)C(=O)N[C@@H](CCC(N)=O)C(=O)N[C@@H](C)C(=O)N[C@@H](CCCNC(=N)N)C(=O)N[C@@H](C)C(=O)N[C@@H](CCCCN)C(=O)N[C@@H](CCC(=O)O)C(=O)N[C@@H](C)C(=O)N[C@@H](Cc1ccccc1)C(=O)N[C@@H](CC(=O)O)C(=O)N[C@@H](CCCNC(=N)N)C(=O)O` [T-041] (H-HLRRLRRRLLRDGDKLQDRLAEYQARAKEAFDR-OH), over 5.00.

Still in this assay, the particulars now being: high surfactant preparation (HBS-P+), 1:1 binding model; read-out: binding KD to LDLR.
In the case of `CC(C)C[C@H](NC(=O)[C@H](CCCNC(=N)N)NC(=O)[C@H](CC(=O)O)NC(=O)[C@H](CCC(N)=O)NC(=O)[C@H](CC(C)C)NC(=O)[C@H](CCCCN)NC(=O)[C@H](CC(=O)O)NC(=O)CNC(=O)[C@H](CC(=O)O)NC(=O)[C@H](CCCNC(=N)N)NC(=O)[C@H](Cc1ccccc1)NC(=O)[C@H](CC(C)C)NC(=O)[C@H](CCCNC(=N)N)NC(=O)[C@H](CCCCN)NC(=O)[C@@H](NC(=O)[C@H](CC(C)C)NC(=O)[C@H](CCCCN)NC(=O)[C@H](CCCNC(=N)N)NC(=O)[C@H](CC(C)C)NC(=O)[C@@H](N)Cc1c[nH]cn1)C(C)C)C(=O)N[C@@H](C)C(=O)N[C@@H](CCC(=O)O)C(=O)N[C@@H](Cc1ccc(O)cc1)C(=O)N[C@@H](CCC(N)=O)C(=O)N[C@@H](C)C(=O)N[C@@H](CCCNC(=N)N)C(=O)N[C@@H](C)C(=O)N[C@@H](CCCCN)C(=O)N[C@@H](CCC(=O)O)C(=O)N[C@@H](C)C(=O)N[C@@H](Cc1ccccc1)C(=O)N[C@@H](CC(=O)O)C(=O)N[C@@H](CCCNC(=N)N)C(=O)O` [T-059] (H-HLRKLVKRLFRDGDKLQDRLAEYQARAKEAFDR-OH), the pKd is over 5.00. Still for that read-out and setting: with `CC(C)C[C@H](NC(=O)[C@H](CCCNC(=N)N)NC(=O)[C@H](CCCCN)NC(=O)[C@H](CCC(N)=O)NC(=O)[C@H](CC(C)C)NC(=O)[C@H](CC(=O)O)NC(=O)[C@H](CC(=O)O)NC(=O)[C@H](C)NC(=O)[C@H](CC(=O)O)NC(=O)[C@H](CCCNC(=N)N)NC(=O)[C@H](CC(C)C)NC(=O)[C@H](CC(C)C)NC(=O)[C@H](CCCNC(=N)N)NC(=O)[C@H](CCCCN)NC(=O)[C@H](CCCNC(=N)N)NC(=O)[C@H](CC(C)C)NC(=O)[C@H](CCCCN)NC(=O)[C@H](CCCNC(=N)N)NC(=O)[C@H](CC(C)C)NC(=O)[C@@H](N)Cc1c[nH]cn1)C(=O)N[C@@H](C)C(=O)N[C@@H](CCC(=O)O)C(=O)N[C@@H](Cc1ccc(O)cc1)C(=O)N[C@@H](CCC(N)=O)C(=O)N[C@@H](C)C(=O)N[C@@H](CCCNC(=N)N)C(=O)N[C@@H](C)C(=O)N[C@@H](CCCCN)C(=O)N[C@@H](CCC(=O)O)C(=O)N[C@@H](C)C(=O)N[C@@H](Cc1ccccc1)C(=O)N[C@@H](CC(=O)O)C(=O)N[C@@H](CCCNC(=N)N)C(=O)O` [T-064] (H-HLRKLRKRLLRDADDLQKRLAEYQARAKEAFDR-OH) the figure was over 5.00; with `CC(C)C[C@H](NC(=O)[C@H](CCCNC(=N)N)NC(=O)[C@H](CCCCN)NC(=O)[C@H](CCC(N)=O)NC(=O)[C@H](CC(C)C)NC(=O)[C@H](CCCCN)NC(=O)[C@H](CC(=O)O)NC(=O)CNC(=O)[C@H](CC(=O)O)NC(=O)[C@H](CCCNC(=N)N)NC(=O)[C@H](CC(C)C)NC(=O)[C@H](CC(C)C)NC(=O)[C@H](CCCNC(=N)N)NC(=O)[C@H](CCCCN)NC(=O)[C@H](CCCNC(=N)N)NC(=O)[C@H](CC(C)C)NC(=O)[C@H](CCCCN)NC(=O)[C@H](CCCNC(=N)N)NC(=O)[C@H](CC(C)C)NC(=O)[C@@H](N)Cc1c[nH]cn1)C(=O)N[C@@H](C)C(=O)N[C@@H](CCC(=O)O)C(=O)N[C@@H](Cc1ccc(O)cc1)C(=O)N[C@@H](CCC(N)=O)C(=O)N[C@@H](C)C(=O)N[C@@H](CCCNC(=N)N)C(=O)N[C@@H](C)C(=O)N[C@@H](CCCCN)C(=O)N[C@@H](CCC(=O)O)C(=O)N[C@@H](C)C(=O)N[C@@H](Cc1ccccc1)C(=O)N[C@@H](CC(=O)O)C(=O)N[C@@H](CCCNC(=N)N)C(=O)O` [T-052] (H-HLRKLRKRLLRDGDKLQKRLAEYQARAKEAFDR-OH), over 5.00; with `CC(C)C[C@H](NC(=O)[C@H](CCCNC(=N)N)NC(=O)[C@H](CC(=O)O)NC(=O)[C@H](CCC(N)=O)NC(=O)[C@H](CC(C)C)NC(=O)[C@H](CCCCN)NC(=O)[C@H](CC(=O)O)NC(=O)CNC(=O)[C@H](CC(=O)O)NC(=O)[C@H](CCCNC(=N)N)NC(=O)[C@H](CC(C)C)NC(=O)[C@H](CC(C)C)NC(=O)[C@H](CCCNC(=N)N)NC(=O)[C@H](CCCCN)NC(=O)[C@H](CCCNC(=N)N)NC(=O)[C@H](CC(C)C)NC(=O)[C@H](CCCCN)NC(=O)[C@H](CCCNC(=N)N)NC(=O)[C@H](CC(C)C)NC(=O)[C@@H](N)Cc1c[nH]cn1)C(=O)N[C@@H](C)C(=O)N[C@@H](CCC(=O)O)C(=O)N[C@@H](Cc1ccc(O)cc1)C(=O)N[C@@H](CCC(N)=O)C(=O)N[C@@H](C)C(=O)N[C@@H](CCCNC(=N)N)C(=O)N[C@@H](C)C(=O)N[C@@H](CCCCN)C(=O)N[C@@H](CCC(=O)O)C(=O)N[C@@H](C)C(=O)N[C@@H](Cc1ccccc1)C(=O)N[C@@H](CC(=O)O)C(=O)N[C@@H](CCCNC(=N)N)C(=O)O` [T-040] (H-HLRKLRKRLLRDGDKLQDRLAEYQARAKEAFDR-OH), over 5.00.

Regarding `CSCC[C@H](NC(=O)[C@H](CC(C)C)NC(=O)[C@H](CC(=O)O)NC(=O)[C@H](CCCCN)NC(=O)CNC(=O)[C@H](Cc1ccc(O)cc1)NC(=O)[C@H](CC(=O)O)NC(=O)[C@@H](NC(=O)[C@@H](NC(=O)[C@@H](NC(=O)[C@H](CCC(N)=O)NC(=O)[C@H](Cc1ccccc1)NC(=O)[C@H](Cc1ccc(O)cc1)NC(=O)[C@H](CCC(N)=O)NC(=O)[C@H](CO)NC(=O)[C@@H](NC(=O)[C@H](CC(C)C)NC(=O)[C@H](CO)NC(=O)[C@H](CCCNC(=N)N)NC(=O)[C@H](C)NC(=O)[C@H](CC(C)C)NC(=O)[C@H](CCCNC(=N)N)NC(=O)[C@H](CCCCN)NC(=O)[C@H](CCCNC(=N)N)NC(=O)[C@H](CC(C)C)NC(=O)[C@H](CCCCN)NC(=O)[C@H](CCCNC(=N)N)NC(=O)[C@H](CC(C)C)NC(=O)[C@H](Cc1c[nH]cn1)NC(=O)[C@H](CCCNC(=N)N)NC(=O)[C@H](C)NC(=O)[C@@H](N)CC(C)C)C(C)C)[C@@H](C)O)C(C)C)[C@@H](C)O)C(=O)O` [T-066] (H-LARHLRKLRKRLARSLVSQYFQTVTDYGKDLM-OH), the pKd was over 5.00.
